# Data: patent publication US20130171139A1, “NCAM-VASE AND NEURODEGENERATION” (priority 2010, published 2013)
# Tests used:
# Assay type in all cases: cell-based
# total NCAM = assay: Total NCAM staining of cultured cortical astrocytes; details: PND4 rat cortical astrocytes; 2 days; 1 mM dbcAMP or 50 ng/ml FGF-2
# Experimental: (§1) Expression of NCAM-VASE by astrocytes was also examined. Astrocytes (>90% GFAP-positive cells) were isolated from the cortices of PND4 rat and cultured for 2 days in the absence or presence of 1 mM dbcAMP or 50 ng/ml FGF-2 in DMEM/10% FBS. Treatment with dbcAMP or FGF is known to stimulate a reactive phenotype in astrocytes, such as is found in astrocytes in the glial scars that are characteristic of damaged CNS. The astrocytes were then fixed and costained for GFAP and NCAM-VASE (as shown in FIG. 4) or total NCAM (not shown).
# NCAM-VASE = NCAM-VASE staining of cultured cortical astrocytes; details: PND4 rat cortical astrocytes; 2 days; 1 mM dbcAMP or 50 ng/ml FGF-2
# Experimental: as §1
# [1] = test system: PND4 rat cerebellar granule neurons; assay: Neurite/axon outgrowth of cerebellar granule neurons cultured on 3T3 monolayers (control, NCAM or NCAM-VASE); details: FGF (0.1 ng/m) or forskolin added to culture medium
# Experimental: It has previously been shown that soluble NCAM-Fc stimulates axon outgrowth over control monolayers as effectively as if it were expressed in the monolayer (Meiri et al, J. Neurosci, 1998, 18, 10429-10437). […]
# […] Cerebellar granule neurons were cultured on control, NCAM-expressing (NCAM) or NCAM-VASE-expressing (VASE) monolayers in the absence of presence of soluble NCAM-Fc or NCAM-VASE-Fc (VASE-Fc).
Compound,total NCAM staining (total NCAM),NCAM-VASE staining (NCAM-VASE),axon length ([1]; NCAM-VASE-expressing monolayers),axon outgrowth ([1]; control monolayers)
"CCCC(=O)Nc1ncnc2c1ncn2[C@@H]1O[C@@H]2COP(=O)(O)O[C@H]2[C@H]1OC(=O)CCC [dBcAMP, dbcAMP, reference compound]",large upregulation,large upregulation,,
"FGF2: fibroblast growth factor, known to stimulate axon outgrowth from cerebellar granule neurons",large upregulation,large upregulation,do not extend longer axons,stimulate axon outgrowth
